System: patients of the REDUCE-IT and earlier EPA placebo-controlled trials
Test: Example 3: adverse events by risk ratio, icosapent ethyl vs placebo (candidate categories; infectious disease terms of interest)
Details: ISS

CC/C=C\C/C=C\C/C=C\C/C=C\C/C=C\CCCC(=O)OCC [icosapent ethyl, eicosapentaenoic acid ethyl ester]
AR: Cholesterol Increased (AE table): 0.9% | AR: Chorea, Related (AE table): 0.7% | AR: Constipation, Related (AE table): 0.5% | AR: Diarrhea, Any Severity (AE table): 9.8% | AR: Diarrhea, Mild Severity (AE table): 7.4% | AR: Diarrhea, Related (AE table): 8.4% | AR: Flatulence, Any Severity (AE table): 1.1% | AR: Flatulence, Mild Severity (AE table): 0.9% | AR: Flatulence, Related (AE table): 1.1% | AR: Frequent Bowel Movements, Any Severity (AE table): 0.2% | AR: Frequent Bowel Movements, Mild Severity (AE table): 0.2% | AR: Frequent Bowel Movements, Related (AE table): 0.2% | AR: Hot Flush (AE table): 0.6% | AR: Huntington's Chorea, Any Severity (AE table): 1.0% | AR: Huntington's Chorea, Mild Severity (AE table): 0.8% | AR: Menorrhagia (AE table): 0.4% | AR: Muscle spasms, Related (AE table): 0.2% | AR: Nasopharyngitis, Any Severity (AE table): 4.3% | AR: Nasopharyngitis, Mild Severity (AE table): 3.3% | AR: Urine Protein Present (AE table): 0.1% | AR: Weight loss, Related (AE table): 0.3% | ARR: Cholesterol Increased (AE table): −1.4% | ARR: Chorea, Related (AE table): −0.5% | ARR: Constipation, Related (AE table): −0.8% | ARR: Diarrhea, Any Severity (AE table): −1.6% | ARR: Diarrhea, Mild Severity (AE table): −2.2% | ARR: Diarrhea, Related (AE table): −1.5% | ARR: Flatulence, Any Severity (AE table): −0.8% | ARR: Flatulence, Mild Severity (AE table): −0.8% | ARR: Flatulence, Related (AE table): −0.8% | ARR: Frequent Bowel Movements, Any Severity (AE table): −0.6% | ARR: Frequent Bowel Movements, Mild Severity (AE table): −0.4% | ARR: Frequent Bowel Movements, Related (AE table): −0.6% | ARR: Hot Flush (AE table): −0.3% | ARR: Huntington's Chorea, Any Severity (AE table): −1.3% | ARR: Huntington's Chorea, Mild Severity (AE table): −0.9% | ARR: Menorrhagia (AE table): −0.6% | ARR: Muscle spasms, Related (AE table): −0.0% | ARR: Nasopharyngitis, Any Severity (AE table): −2.3% | ARR: Nasopharyngitis, Mild Severity (AE table): −2.3% | ARR: Urine Protein Present (AE table): −0.2% | ARR: Weight loss, Related (AE table): −0.4% | NNT: Cholesterol Increased (AE table): 69 | NNT: Chorea, Related (AE table): 187 | NNT: Constipation, Related (AE table): 122 | NNT: Diarrhea, Any Severity (AE table): 61 | NNT: Diarrhea, Mild Severity (AE table): 45 | NNT: Diarrhea, Related (AE table): 65 | NNT: Flatulence, Any Severity (AE table): 121 | NNT: Flatulence, Mild Severity (AE table): 129 | NNT: Flatulence, Related (AE table): 121 | NNT: Frequent Bowel Movements, Any Severity (AE table): 173 | NNT: Frequent Bowel Movements, Mild Severity (AE table): 259 | NNT: Frequent Bowel Movements, Related (AE table): 173 | NNT: Hot Flush (AE table): 292 | NNT: Huntington's Chorea, Any Severity (AE table): 77 | NNT: Huntington's Chorea, Mild Severity (AE table): 109 | NNT: Menorrhagia (AE table): 159 | NNT: Muscle spasms, Related (AE table): 2007 | NNT: Nasopharyngitis, Any Severity (AE table): 43 | NNT: Nasopharyngitis, Mild Severity (AE table): 43 | NNT: Urine Protein Present (AE table): 519 | NNT: Weight loss, Related (AE table): 230 | Risk Ratio (95% CI): Cholesterol Increased (AE table): 0.165 (0.036 to 0.759) 5 | Risk Ratio (95% CI): Chorea, Related (AE table): 0.445(0.107 to 1.853) 3 | Risk Ratio (95% CI): Constipation, Related (AE table): 0.148 (0.017 to 1.265) 5 | Risk Ratio (95% CI): Diarrhea, Any Severity (AE table): 0.847 (0.603 to 1.191) 1 | Risk Ratio (95% CI): Diarrhea, Mild Severity (AE table): 0.741 (0.498 to 1.103) 2 | Risk Ratio (95% CI): Diarrhea, Related (AE table): 0.834 (0.575 to 1.210) 1 | Risk Ratio (95% CI): Flatulence, Any Severity (AE table): 0.463 (0.152 to 1.408) 3 | Risk Ratio (95% CI): Flatulence, Mild Severity (AE table): 0.424 (0.125 to 1.440) 3 | Risk Ratio (95% CI): Flatulence, Related (AE table): 0.463 (0.152 to 1.408) 3 | Risk Ratio (95% CI): Frequent Bowel Movements, Any Severity (AE table): [0 drug vs 3 PBO] | Risk Ratio (95% CI): Frequent Bowel Movements, Mild Severity (AE table): [0 drug vs 2 PBO] | Risk Ratio (95% CI): Frequent Bowel Movements, Related (AE table): [0 drug vs 3 PBO] | Risk Ratio (95% CI): Hot Flush (AE table): 0.556 (0.125 to 2.474) 3 | Risk Ratio (95% CI): Huntington's Chorea, Any Severity (AE table): 0.247 (0.067 to 0.908) 4 | Risk Ratio (95% CI): Huntington's Chorea, Mild Severity (AE table): 0.318 (0.083 to 1.223) 4 | Risk Ratio (95% CI): Menorrhagia (AE table): 0.185 (0.021 to 1.653) 5 | Risk Ratio (95% CI): Muscle spasms, Related (AE table): 0.741 (0.046 to 11.826) 2 | Risk Ratio (95% CI): Nasopharyngitis, Any Severity (AE table): 0.588 (0.344 to 1.004) 3 | Risk Ratio (95% CI): Nasopharyngitis, Mild Severity (AE table): 0.494 (0.265 to 0.921) 3 | Risk Ratio (95% CI): Urine Protein Present (AE table): [0 drug vs 1 PBO] | Risk Ratio (95% CI): Weight loss, Related (AE table): 0.247 (0.026 to 2.369) 4 | ARR (Chorea, Related): −0.5% | NNT (Chorea, Related): 187 | Risk Ratio (95% CI) (Chorea, Related): 0.445 (0.107 to 1.853) 3 | ARR (Constipation, Related): −0.8% | NNT (Constipation, Related): 122 | Risk Ratio (95% CI) (Constipation, Related): 0.148 (0.017 to 1.265) 5 | ARR (Cough): 0.9% | NNT (Cough): −112 | Risk Ratio (95% CI) (Cough): 1.928 (0.692 to 5.373) −3 | ARR (Diarrhea, Any Severity): −1.6% | NNT (Diarrhea, Any Severity): 61 | Risk Ratio (95% CI) (Diarrhea, Any Severity): 0.847 (0.603 to 1.191) 1 | ARR (Diarrhea, Mild Severity): −2.2% | NNT (Diarrhea, Mild Severity): 45 | Risk Ratio (95% CI) (Diarrhea, Mild Severity): 0.741 (0.498 to 1.103) 2 | ARR (Diarrhea, Related): −1.5% | NNT (Diarrhea, Related): 65 | Risk Ratio (95% CI) (Diarrhea, Related): 0.834 (0.575 to 1.210) 1 | ARR (Flatulence, Any Severity): −0.8% | NNT (Flatulence, Any Severity): 121 | Risk Ratio (95% CI) (Flatulence, Any Severity): 0.463 (0.152 to 1.408) 3 | ARR (Flatulence, Mild Severity): −0.8%

— patent publication US20210308089A1, “METHODS OF TREATING AND/OR PREVENTING VIRAL INFECTIONS AND/OR DISEASES CAUSED BY VIRUSES IN A SUBJECT IN NEED THEREOF” (priority 2020, published 2021)
